# Experimental data as given in patent US20170274014A1, “COMBINATIONS OF LOW, IMMUNE ENHANCING, DOSES OF MTOR INHIBITORS AND CARS” (Novartis AG, priority 2014, published 2017).
# Where “and” joins values, the source holds several entries; their conditions need not be identical. Equal values may be shown once.
# What was measured:
# [1] = test system: A/H1N1/California/07/2009 influenza; assay: Anti-A/H1N1/California/07/2009 influenza IgG and IgM levels in serum before and after vaccination; type: in vivo, human; details: all p values >0.05 by Kruskal-Wallis rank sum test
# Method: FIGS. 4A and 4B are graphic representations of IgG and IgM levels before and after influenza vaccination. Levels of anti-A/H1N1/California/07/2009 influenza IgG and IgM were measured in serum obtained from subjects before and 4 weeks post influenza vaccination.
# [2] = test system: PD-1-positive CD4, CD8 and PD-1-negative CD4 T cells; set-up: species or system human; details: in vivo
# [3] = test system: H3N2 A/Victoria/210/2009; assay: Hemagglutination inhibition titers after seasonal influenza vaccination, A/H3N2 vaccine strain; type: in vivo, human; details: for HI GMT A/H3N2, Baseline: 2 weeks prior to influenza vaccination; for HI GMT A/H3N2, Week 4: 4 weeks after influenza vaccination
# Method: (§1) The trial was observer-blind because the placebo in the RAD001 0.5 mg daily and 20 mg weekly cohorts differed slightly from the RAD001 tablets in those cohorts. […] The treatment duration for all cohorts was 6 weeks during which time subjects underwent safety evaluations in the clinic every 2 weeks. After subjects had been dosed for 4 weeks, RAD001 steady state levels were measured pre-dose and at one hour post dose. After completing the 6 week course of study drug, subjects were given a 2 week drug free break to reverse any possible RAD001-induced immunosuppression, and then were given a 2012 seasonal influenza vaccination (Agrippal®, Novartis Vaccines and Diagnostics, Siena, Italy) containing the strains H1N1 A/California/07/2009, H3N2 A/Victoria/210/2009, B/Brisbane/60/2008. Four weeks after influenza vaccination, subjects had serum collected for influenza titer measurements. Antibody titers to the 3 influenza vaccine strains as well as to 2 heterologous strains (A/H1N1 strain A/New Jersey/8/76 and A/H3N2 strain A/Victoria/361/11) were measured by standard hemagglutination inhibition assay (Kendal, A P et al. (1982) Concepts and procedures for laboratory-based influenza surveillance. Atlanta: Centers for Disease Control and Prevention B17-B35). Levels of IgG and IgM specific for the A/H1N1/California/07/2009 were measured in serum samples taken before and 4 weeks after influenza vaccination as described previously (Spensieri, F. et al. (2013) Proc. Natl. Acad. Sci. USA 110:14330-14335). Results were expressed as fluorescence intensity.
# (§2) The primary analysis of geometric mean titer ratios was done using a normal Bayesian regression model with non-informative priors. This model was fitted to each antibody titer on the log scale. The primary outcome in each model was the Day 84 measurement. The Day 63 measurement was included in the outcome vector. The model fitted using SAS 9.2 proc mixed with the prior statement. The covariance structure of the matrix was considered as unstructured (option type=UN). A flat prior was used. For the secondary analysis of seroconversion rates, logistic regression was used.
# (§3) The ability of RAD001 to improve immune function in elderly volunteers was evaluated by measuring the serologic response to the 2012 seasonal influenza vaccine. The hemagglutination inhibition (HI) geometric mean titers (GMT) to each of the 3 influenza vaccine strains at baseline and 4 weeks after influenza vaccination are provided in Table 6. The primary analysis variable was the HI GMT ratio (4 weeks post vaccination/baseline).
# (§4) Rates of seroconversion 4 weeks after influenza vaccination were also evaluated. Seroconversion was defined as the change from a negative pre-vaccination titer (i.e., HI titer <1:10) to post-vaccination HI titer ≧1:40 or at least 4-fold increase from a non-negative (≧1:10) pre-vaccination HI titer.
# [4] = test system: B/Brisbane/60/2008; assay: Hemagglutination inhibition titers after seasonal influenza vaccination, B vaccine strain; type: in vivo, human; details: for HI GMT B, Baseline: 2 weeks prior to influenza vaccination; for HI GMT B, Week 4: 4 weeks after influenza vaccination
# Method: as §1, §2, §3, §4
# [5] = test system: 3 influenza vaccine strains; set-up: species or system human; details: in vivo
# [6] = test system: A/H1N1/California/07/2009; assay: Serum anti-influenza IgG and IgM levels before and 4 weeks after vaccination; type: in vivo, human; details: RAD001 vs placebo treated cohorts
# Method: as §1, with “After completing the 6 week course of study drug, subjects were given a 2 week drug free break to reverse any possible RAD001-induced immunosuppression, and then were given a 2012 seasonal influenza vaccination (Agrippal®, Novartis Vaccines and Diagnostics, Siena, Italy) containing the strains H1N1 A/California/07/2009, H3N2 A/Victoria/210/2009, B/Brisbane/60/2008. Four weeks after influenza vaccination, subjects had serum collected for influenza titer measurements.” left out
# [7] = test system: huCART19 cells; assay: 4 day co-culture proliferation assay of CART cells with NALM6 target cells; type: cell-based, human; details: 4 day co-culture with NALM6, 1:1
# [8] = test system: huCAR19 CAR T cells; assay: CAR T cell expansion in vivo in NSG mice with NALM6-luc tumors (FACS); details: lowest doses of RAD001, daily oral; more evident and prolonged with CD4+ than CD8+ CAR T cells
# [9] = human, in vivo
# [10] = in vivo
# [11] = test system: pneumococcal serotypes; details: all 3 RAD cohorts; 7 of 23 serotypes measured
# [12] = test system: CAR-expressing, transduced T cells; assay: CART co-culture with NALM6 cells in presence of RAD001; details: low doses of RAD001, 4 days
# [13] = elderly subjects
# [14] = test system: humanized CD19 CART cells; details: RAD001 0.003 mg/kg daily with huCTL019; compared with normal level of huCAR19 proliferation
# [15] = Intention to Treat Population, 0.5 mg, N = 48
# [16] = Intention to Treat Population, 5 mg, N = 49
# [17] = Intention to Treat Population, 20 mg, N = 48
# [18] = Subjects with Baseline Titers <=40, 5 mg
# [19] = Subjects with Baseline Titers <=40, 20 mg
structure (smiles),measurement,setting,value
"CO[C@H]1C[C@@H]2CC[C@@H](C)[C@@](O)(O2)C(=O)C(=O)N2CCCC[C@H]2C(=O)O[C@H]([C@H](C)C[C@@H]2CC[C@@H](OCCO)[C@H](OC)C2)CC(=O)[C@H](C)/C=C(\C)[C@@H](O)[C@@H](OC)C(=O)[C@H](C)C[C@H](C)/C=C/C=C/C=C/1C [RAD001, (1R,9S,12S,15R,16E,18R,19R,21R,23S,24E,26E,28E,30S,32S,35R)-1,18-dihydroxy-12-{(1R)-2-[(1S,3R,4R)-4-(2-hydroxyethoxy)-3-methoxycyclohexyl]-1-methylethyl}-19,30-dimethoxy-15,17,21,23,29,35-hexamethyl-11,36-dioxa-4-aza-tricyclo[30.3.1.04,9]hexatriaconta-16,24,26,28-tetraene-2,3,10,14,20-pentaone]","change from baseline to 4 weeks post vaccination in anti-H1N1 influenza IgG and IgM levels, RAD001 versus placebo cohorts",[1],No significant difference
same,"decrease in PD-1+ CD4 T cells, pooled RAD cohort compared to placebo",[2],30.2%
same,decrease in PD-1-positive CD4 T cells as compared to placebo cohort,[2],−37.1-−28.5%
same,"decrease in PD-1-positive CD4 T cells, pooled RAD cohort compared to placebo",[2],32.7%
same,decrease in PD-1-positive CD8 T cells as compared to placebo cohort,[2],−43.3-−38.5%
same,"decrease in PD-1-positive CD8 T cells, pooled RAD001 cohort compared to placebo",[2],37.4% and 41.4%
same,increase in PD-1-negative CD4 T cells as compared to placebo cohort,[2],3.0-4.9%
same,HI GMT ratio A/H3N2 (week 4 post vaccination/baseline),"[3]; 0.5 mg daily, N = 50",2.1
same,"HI GMT A/H3N2, Baseline","[3]; 0.5 mg daily, N = 50",106.8
same,"HI GMT A/H3N2, Week 4","[3]; 0.5 mg daily, N = 50",194.4
same,HI GMT ratio A/H3N2 (week 4 post vaccination/baseline),"[3]; 5 mg weekly, N = 49",2.0
same,"HI GMT A/H3N2, Baseline","[3]; 5 mg weekly, N = 49",126.04
same,"HI GMT A/H3N2, Week 4","[3]; 5 mg weekly, N = 49",223.0
same,HI GMT ratio A/H3N2 (week 4 post vaccination/baseline),"[3]; 20 mg weekly, N = 49",2.1
same,"HI GMT A/H3N2, Baseline","[3]; 20 mg weekly, N = 49",137.1
same,"HI GMT A/H3N2, Week 4","[3]; 20 mg weekly, N = 49",223.0
same,Percent of subjects with seroconversion to influenza H3N2 4 weeks after vaccination,[3]; [15],27%
same,Percent of subjects with seroconversion to influenza H3N2 4 weeks after vaccination,[3]; [16],24%
same,Percent of subjects with seroconversion to influenza H3N2 4 weeks after vaccination,[3]; [17],25%
same,Percent of subjects with seroconversion to influenza H3N2 4 weeks after vaccination,"[3]; Subjects with Baseline Titers <=40, 0.5 mg",64%
same,Percent of subjects with seroconversion to influenza H3N2 4 weeks after vaccination,[3]; [18],53%
same,Percent of subjects with seroconversion to influenza H3N2 4 weeks after vaccination,[3]; [19],71%
same,HI GMT ratio B (week 4 post vaccination/baseline),"[4]; 0.5 mg daily, N = 50",2.5
same,"HI GMT B, Baseline","[4]; 0.5 mg daily, N = 50",44.2
same,"HI GMT B, Week 4","[4]; 0.5 mg daily, N = 50",98.4
same,HI GMT ratio B (week 4 post vaccination/baseline),"[4]; 5 mg weekly, N = 49",2.2
same,"HI GMT B, Baseline","[4]; 5 mg weekly, N = 49",64.8
same,"HI GMT B, Week 4","[4]; 5 mg weekly, N = 49",117.3
same,HI GMT ratio B (week 4 post vaccination/baseline),"[4]; 20 mg weekly, N = 49",2.1
same,"HI GMT B, Baseline","[4]; 20 mg weekly, N = 49",58.0
same,"HI GMT B, Week 4","[4]; 20 mg weekly, N = 49",99.2
same,Percent of subjects with seroconversion to influenza B 4 weeks after vaccination,[4]; [15],27%
same,Percent of subjects with seroconversion to influenza B 4 weeks after vaccination,[4]; [16],22%
same,Percent of subjects with seroconversion to influenza B 4 weeks after vaccination,[4]; [17],19%
same,Percent of subjects with seroconversion to influenza B 4 weeks after vaccination,"[4]; Subjects with Baseline Titers <=40, 0.5 mg, * p < 0.05 vs placebo",40* Percent
same,Percent of subjects with seroconversion to influenza B 4 weeks after vaccination,[4]; [18],33%
same,Percent of subjects with seroconversion to influenza B 4 weeks after vaccination,[4]; [19],28%
same,Primary endpoint of the study (HI GMT ratio >=1.2-fold relative to placebo in at least 2 of 3 strains),[5],met the GMT primary endpoint
same,RAD001-associated increase in influenza titers in subgroup analysis,[5],greater RAD001-associated increase in titers than did the ITT population
same,Post-vaccination anti-influenza IgM and IgG levels,[6],did not differ between RAD001 and placebo treated cohorts
same,RAD001 concentration in whose presence huCART19 cells expanded (lesser extent at higher concentrations),[7],less than 0.016 nM
same,Proliferation of the CAR T cells in vivo,[8],enhanced proliferation
same,Deaths during the study,[9],No deaths occurred
same,Incidence of treatment-related AE: Blood cholesterol increased,[9],2 (3.8%) n (%)
same,Most common RAD001-related AE,[9],mouth ulcer
same,Tolerability,[9],well tolerated
same,Trough level of the immunization study regimens relative to approved transplant and oncology regimens,[10]; human,3-20 fold lower
same,Average RAD001 trough level,[10],below detection limits
same,Pneumococcal serotypes with increased antibody titers compared to placebo,[11],6/7
same,"proliferation of CAR-expressing, transduced T cells",[12],enhanced
same,exercise and energy,[13],increases in exercise and energy
same,CAR T cell proliferation in vivo (CD4+ and CD8+ CAR T cells),[14],enhancement in CAR T cell proliferation
